Assay results: US12227533B2, “Crystalline forms and methods of producing crystalline forms of a compound” (Viking Therapeutics, Inc., priority 2018, dated 2025)
In brackets after ≈: the same amount, converted by molar mass. One block for each molecule: values may come before it.

How the values were obtained:
Type in all cases: physicochemical
[1] = Dynamic vapor sorption (DVS)
Protocol: The sample (9.869 mg) was placed on a Pt pan, and the sample was allowed to equilibrate at 25° C. at 50% relative humidity (r.h.) before starting a pre-defined humidity program. The predefined humidity programs include 1.0 hours 50%, from 50% r.h. to 0% r.h.; 5% r.h. per hour, 5 hours at 0% r.h., from 0% r.h. to 93% r.h.; 5% r.h. per hour, 5 hours at 93% r.h., from 93% r.h. to 50% r.h.; and 5% r.h. per hour, 1 hours at 50% r.h.
(§1) (approx. ±0.1%). After storing for 3 days at 96% r.h. at room temperature (Test 49), FIG. 29a, and at 40° C. […] The water uptake measured by the Karl Fischer method was very low (<0.2%). […] The broad background in the XRPD diagram, FIG. 26, is due to water remaining in the sample after careful drying at room temperature following filtration of the suspension. The Karl Fischer result indicates 45% water content.

[2] = Storage in humidity chamber at 96% r.h., solid form checked by XRPD; conditions: for solid form by XRPD after storing in humidity chamber: 96% r.h.
Protocol: Desolvation of the solvates tends to produce the amorphous form.
as §1

[3] = Karl Fischer moisture analysis after humidity storage; conditions: after storing 3 days at 96% r.h.
Protocol: as §1, with “Karl Fischer moisture analyses were carried out according to standard procedures. […] (approx.” for “(approx.”

[4] = Phase equilibration experiment in water, solid form checked by XRPD; conditions: stirring 3 days, 23° C. (room temperature)
Protocol: as §1

[5] = Phase equilibration experiments in EtOAc/heptane 1:7 v/v; conditions: 3 days
[6] = Measurement of the approximate solubility at ambient temperature; conditions: organic solvent or mixture, 23° C.
Protocol: In some embodiments, to determine the approximate solubility at room temperature, solvent was added in steps to the solid material. After every addition, the sample was well stirred. The addition of solvent was continued until complete dissolution or until 20 ml of solvent was added.
In other embodiments, aliquots of the test solvent were added to an accurately weighed amount of the compound of Formula I in small increments (usually 100-1000 μL), with sonication until complete dissolution was obtained, if possible. Dissolution was determined visually. The actual solubilities may be higher than reported due to slow dissolution rates or the use of excess solvent. The approximate solubility was determined in mg/mL to the nearest whole number.
The approximate solubility at ambient temperature must be known in order to carry out systematic crystallization experiments.

- water uptake (DVS) ([1]; FIG. 29a): less than 0.2 % by weight
- hygroscopicity ([1]; conclusion from DVS and humidity tests): non-hygroscopic
- solid form by XRPD after storing in humidity chamber ([2]; 23° C. (room temperature), 3 days): no transformation of the crystal form
- solid form by XRPD after storing in humidity chamber ([2]; 40° C., 3 days): no transformation of the crystal form
- water uptake measured by the Karl Fischer method [3]: < 0.2%
- solid form by XRPD after phase equilibration in water [4]: no transformation of the crystal form
- solid form by XRPD after phase equilibration in water ([4]; listed as crystalline Form C): no transformation
- solid form after phase equilibration in EtOAc/heptane 1:7 v/v ([5]; 78° C.): no transformation
- solid form after phase equilibration in EtOAc/heptane 1:7 v/v ([5]; room temperature): no transformation
SMILES: Cc1cc(OC[P@@]2(=O)OCC[C@@H](c3cccc(Cl)c3)O2)cc(C)c1Cc1ccc(O)c(C(C)C)c1 [Crystal form C]
- solid form by XRPD following DVS analysis ([1]; FIGS. 24 and 25): did not transition to a different polymorph
- hydrate formation ([2]; conclusion from DVS, humidity storage and water equilibration): does not show any evidence of hydrate formation

SMILES: Cc1cc(OC[P@@]2(=O)OCC[C@@H](c3cccc(Cl)c3)O2)cc(C)c1Cc1ccc(O)c(C(C)C)c1 [THF solvate]
- solid form by XRPD after storing in humidity chamber ([2]; 23° C. (room temperature), 8 weeks): a mixture of the solvate and the amorphous form

- solubility ([6]; methyl ethyl ketone, thermodynamic from solid, methy ethyl ketone): > 480 mg/mL
- solubility ([6]; thermodynamic from solid, 1-octanol): > 200 mg/mL
- solubility ([6]; thermodynamic from solid, 2,2,2-trifluoroethanol): ~195 mg/mL (≈ 379 mM)
- solubility ([6]; thermodynamic from solid, EtOAc): ~772 mg/mL (≈ 1500 mM)
- solubility ([6]; thermodynamic from solid, EtOAc/n-heptane 75:25 v/v): > 200 mg/mL
- solubility ([6]; thermodynamic from solid, N-methyl-2-pyrrolidone (NMP)): > 200 mg/mL
- solubility ([6]; thermodynamic from solid, THF): > 384 mg/mL
- solubility ([6]; thermodynamic from solid, THF/water 75:25 v/v): 190 mg/mL (≈ 369 mM)
- solubility ([6]; thermodynamic from solid, acetic acid): > 200 mg/mL
- solubility ([6]; thermodynamic from solid, acetone/n-heptane 75:25 v/v): > 200 mg/mL
- solubility ([6]; thermodynamic from solid, acetone/water 75:25 v/v): > 200 mg/mL
- solubility ([6]; thermodynamic from solid, acetonitrile): > 480 mg/mL
- solubility ([6]; thermodynamic from solid, acetonitrile/water 75:25 v/v): > 200 mg/mL
- solubility ([6]; thermodynamic from solid, chloroform): > 388 mg/mL
- solubility ([6]; thermodynamic from solid, dichloromethane): > 480 mg/mL
- solubility ([6]; thermodynamic from solid, ethanol): > 200 mg/mL
- solubility ([6]; thermodynamic from solid, ethanol/n-heptane 75:25 v/v): > 200 mg/mL
- solubility ([6]; thermodynamic from solid, ethanol/water 75:25 v/v): > 200 mg/mL
- solubility ([6]; thermodynamic from solid, methyl nonafluorobutyl ether): < 39 mg/mL
- solubility ([6]; thermodynamic from solid, methylcyclohexane): < 40 mg/mL
- solubility ([6]; thermodynamic from solid, n-heptane): < 38 mg/mL
- solubility ([6]; thermodynamic from solid, nitrobenzene): > 200 mg/mL
- solubility ([6]; thermodynamic from solid, pyridine): > 200 mg/mL
- solubility ([6]; thermodynamic from solid, tert-butyl methyl ether (TBME)): > 200 mg/mL
- solubility ([6]; thermodynamic from solid, tetrahydrofuran (THF)/n-heptane 75:25 v/v): > 200 mg/mL
- solubility ([6]; thermodynamic from solid, toluene): > 200 mg/mL
SMILES: Cc1cc(OC[P@@]2(=O)OCC[C@@H](c3cccc(Cl)c3)O2)cc(C)c1Cc1ccc(O)c(C(C)C)c1 [Starting Material A]
